# From patent US6964960B2, “Indoloquinazolinones” (Novartis AG, priority 2000, dated 2005)
# Legend:
# [1] = test system: pentobarbital-anesthetized rabbit myocardial infarction; assay: pentobarbital-anesthetized rabbit myocardial infarction model; type: in vivo
# From the text: The cardioprotective activity of the agents of the invention is confirmed in vivo e.g. in a model of pentobarbital-anesthetized rabbit myocardial infarction where the infarct size is reduced upon administration of about 1 to about 100 μmol/kg [For the model, see for example Ytrehus K. et al., Am. J. Physiol 267 (Heart Circ. Physiol. 36): H2383-2390, 1994 and Haessler R. et al., Cardiov. Res. 28: 1574-1580, 1994; for the cardioprotective effect of PARP inhibitors as evidenced in this model, see for example Thiemermann C. et al., Proc. Natl. Acad. Sci. USA 94: 679-683, 1997].
melting point,SMILES,"reduction of infarct size ([1]; highest dose tested (70 μmol/kg i.v., 22.1 mg/kg of the base), single injection five minutes before reperfusion)",effect on infarct size ([1]; single injection at 3-70 μmol/kg i.v. (0.95-22.1 mg/kg i.v. of the base) five minutes before reperfusion)
165 to 195 °C (dec.),"CCC(N)Cc1c2ccccc2n2c1[nH]c(=O)c1ccccc12 (stereo not shown) [Example 65, 7-(2-Amino-butyl)-6H-indolo[1,2-a]quinazoline-5-one]",,
248 to 252 °C,"O=c1[nH]c2c(CCO)c3ccccc3n2c2ccccc12 [Example 61, 7-(2-Hydroxy-ethyl)-6H-indolo[1,2-a]quinazoline-5-one]",,
> 300 °C,"NCCc1c2ccccc2n2c1[nH]c(=O)c1ccccc12 [Example 64, 7-(2-Amino-ethyl)-6H-indolo[1,2-a]quinazoline-5-one]",,

# The next lines start with the compound.
SMILES,melting point,"reduction of infarct size ([1]; highest dose tested (70 μmol/kg i.v., 22.1 mg/kg of the base), single injection five minutes before reperfusion)",effect on infarct size ([1]; single injection at 3-70 μmol/kg i.v. (0.95-22.1 mg/kg i.v. of the base) five minutes before reperfusion)
"CCc1c2ccccc2n2c1[nH]c(=O)c1ccccc12 [Example 1, 7-Ethyl-6H-indolo[1,2-a]quinazoline-5-one]",245 to 260 °C,,
Cl.Cl.O=c1[nH]c2c(CCNCCN3CCOCC3)c3ccccc3n2c2ccccc12,196 to 198 °C,,
"O=c1[nH]c2c(Cc3nnn[nH]3)c3ccccc3n2c2ccccc12 [Example 22, 7-(1 H-Tetrazole-5-ylmethyl)-6H-indolo[1,2-a]quinazoline-5-one]",,60%,dose-dependently reduces infarct size
